Several values for one entry are separate records, joined by “and”; a condition that tells them apart may be missing. Equal entries are not always repeated. Where two headings read alike, the source gives them in different places.
Tests used:
human CB2 receptors = target: T1, human CB2 receptors (Homo sapiens, UniProt P34972); assay: Cannabinoid receptor [3H]CP-55,940 displacement binding assay, CB2
T1 construct: expressed in transfected cells; host or cells: CHO cells
Protocol: The affinities of the compounds for CB1 and CB2 receptors were examined using displacement assays, as previously described. Briefly, cell membranes from CHO cells expressing human CB1 or human CB2 receptors were isolated using differential centrifugation. Test compounds reconstituted in DMSO and were incubated with the isolated membrane in binding buffer (50 mM Tris-HCl, 1 mM EDTA, 3 mM MgCl2, 5 mg/mL BSA, pH 7.4) along with 2.5 nM [^3H]CP-55,940. Total binding was assessed in the presence of equal concentration of DMSO, while non-specific binding was determined in the presence of 10 μM CP-55,940, and background binding was determined in wells lacking membrane. Following incubation at 30 °C for 60 min, the binding reactions were terminated by vacuum filtration through Whatman GF/C filters. The filters were then washed twice with ice-cold buffer (50 mM Tris-HCl, 1 mg/mL BSA). Liquid scintillation cocktail was added to each well and the total tritiated counts per minute were analyzed using a TopCount scintillation counter. Background counts were subtracted from all wells and the percent displacement from total binding was calculated.
The compounds were initially screened at 10 μM concentrations. If they produced at least ±30% displacement of the radioligand, then full competition curves were constructed. Ki values were calculated using GraphPad Prism (San Diego, CA, USA) and Kd values determined using a 1 site fit. All assays were run in technical and biological replicates so that the n = 5–6.

[1] = Stability studies under physiological pH; type: physicochemical; conditions: 4k compared to 4q, data not reported
[2] = PK evaluation in CD-1 mice (plasma, brain, kidney, liver; i.v. and oral); type: in vivo; conditions: for bioavailability: oral vs intravenous 5 mg/kg
Protocol: The primary stock solutions of 4k and phenacetin (internal standard, IS) were prepared in methanol at a concentration of 1.0 mg/mL. Working solutions of calibration standards and quality control (QC) samples were prepared by dilution with methanol and stored at −20 °C. A working stock of the IS solution (20 ng/mL) was prepared in methanol and stored at −20 °C.
Chromatography was performed on an Acquity^TM UPLC system (Waters Corp, Milford, MA, USA) with an autosampler temperature at 10 °C. Waters Acquity UPLC® HSS C18 column (3.0 × 50 mm, 1.8 µm particle size) was used for chromatographic separation with linear gradient elution consisting of (A) 90% acetonitrile and (B) 10% 0.2% formic acid in Milli-Q water as mobile phases. The flow rate was set at 0.30 mL/min, and the injection volume was 2 µL.
An Acquity Tandem Quadrupole Mass Detector (Xevo TQ-S; Waters Corp, Milford, MA, USA) in positive electrospray ionization mode was used for mass spectrometric detection. For collision-induced dissociation, argon was used as collision gas. The cone voltage and collision energy were set at 60 V and 34 V for 4k and 46 V and 26 V for the IS, respectively. Quantification was performed using the monitoring of multiple reaction monitoring (MRM) of following transitions: m/z 409.0/220.9 for 4k and m/z 180.0/92.7 for IS. Retention times of 4k and IS were 2.85 and 1.81 min, respectively.
A simple protein precipitation method was followed for extraction of 4k from mice plasma. To an aliquot of 50 μL of plasma or tissue (brain, liver, or kidney) samples, IS solution (5 μL of 20 ng/mL) was added and mixed for 15 s on a cyclomixer (Thermo Scientific, Indianapolis, IN, USA). After precipitation with 200 μL of acetonitrile, the mixture was vortexed for 2 min, followed by centrifugation for 10 min at 14,000 rpm on an accuSpin Micro 17R (Fisher Scientific, Suwanee, GA, USA) at 5 °C. An aliquot of ~150 μL of clear supernatant was transferred into vials and 2 μL was injected onto LC-MS/MS system for analysis.
Male CD-1 mice (N = 48) were obtained from Envigo (St. Louis, MO, USA) and maintained on a 12:12 h reversed dark/light cycle (lights off at 07:00 h) with ad libitum access to food and water. Following a ~4 h fast, animals were randomly assigned to one of two groups. Group I and II animals (n = 24/group, weight range 25–30 g) received compound 4k (5 mg/kg) orally (in the form of a solution, prepared using 10% absolute alcohol, 10% cremophor, and 80% Milli-Q water) or intravenously (i.v., using solution formulation comprising 10% absolute alcohol, 10% cremophor, and 80% normal saline), respectively. At 0.5, 1, 2, 4, 8, and 24 h post administration, animals were euthanized, blood was collected in K2. EDTA-containing polypropylene tubes and, tissues were collected (brain, liver, and kidney). Plasma was harvested by centrifuging the blood using Eppendorf 5430R Centrifuge (Germany) at 5000 rpm for 5 min and stored frozen at −80 °C until analysis.
Brain, liver, and kidney tissues were homogenized in separate 15 mL round-bottom screw-capped vials in phosphate buffered saline (5 volumes of each tissue mass) with a homogenizer (Polytron®) and stored at −80 °C until analysis. Plasma or tissue homogenates (50 μL) were spiked with IS and processed as mentioned in sample preparation section.
Plasma and tissue concentration and time data of compound 4k were analyzed by a non-compartmental method using WinNonlin Version 5.3 (Pharsight Corporation, Mountain View, CA, USA).

[3] = male, CD-1, mouse, intravenous 5 mg/kg, plasma
[4] = male, CD-1, mouse, oral 5 mg/kg, plasma

T1 sequence (P34972 whole entry): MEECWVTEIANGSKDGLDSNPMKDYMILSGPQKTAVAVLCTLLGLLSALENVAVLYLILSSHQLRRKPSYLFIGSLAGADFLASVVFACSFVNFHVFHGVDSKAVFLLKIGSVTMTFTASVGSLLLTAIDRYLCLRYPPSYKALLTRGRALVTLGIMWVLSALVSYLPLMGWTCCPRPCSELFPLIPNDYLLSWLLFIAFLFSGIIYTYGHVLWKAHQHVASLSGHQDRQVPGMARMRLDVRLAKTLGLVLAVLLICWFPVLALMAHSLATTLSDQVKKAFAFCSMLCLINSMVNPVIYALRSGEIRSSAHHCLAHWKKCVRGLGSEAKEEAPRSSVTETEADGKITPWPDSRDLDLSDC

For `O=C1c2ccc(Cl)cc2N/C(=N/N=C/c2cc3ccccc3s2)[C@@H]2CCCN12` [Compound 4k], the inhibition at 10 µM (human CB2 receptors; 1 h, 10 µM compound, CHO cell membranes, 2.5 nM radioligand, read-out: Displacement of [3H]CP-55,940 from CB2) was 84.6%, the Ki (human CB2 receptors; CB2, full competition curves vs [3H]CP-55,940) was 146 nM and the “tolerance under physiological pH (stability)” value [1] was “better tolerance”. For the same compound, the “AUC0–∞” value ([2]; intravenous 5 mg/kg, brain) was 5685 ng·h/g, the t1/2 ([2]; intravenous 5 mg/kg, brain, 5 mg/kg) was 6.54 h and the “AUC0–∞” value ([2]; intravenous 5 mg/kg, kidney) was 13272 ng·h/g. The “AUC0–∞” value ([2]; intravenous 5 mg/kg, liver) was 19991 ng·h/g, the t1/2 ([2]; intravenous 5 mg/kg, liver, 5 mg/kg) was 9.26 h and the “clearance as share of hepatic blood flow in mice” value ([2]; intravenous 5 mg/kg, plasma) was 26%. The t1/2 ([2]; intravenous 5 mg/kg, plasma, 5 mg/kg) was 6.91 h, the Kp ([2]; male, CD-1, mouse, brain and plasma, intravenous 5 mg/kg, read-out: mean brain to plasma ratio) was 3.67 and the Kp ([2]; male, CD-1, mouse, brain and plasma, oral 5 mg/kg, read-out: mean brain to plasma ratio) was 4.61. For the same compound, the half-life ([2]; male, CD-1, mouse, brain, iv, 5 mg/kg, intravenous 5 mg/kg, brain, read-out: t1/2 (converted)) was 6.5 h, the half-life ([2]; male, CD-1, mouse, brain, po, 5 mg/kg, oral 5 mg/kg, brain, read-out: t1/2 (converted)) was 22.9 h and the Kp ([2]; male, CD-1, mouse, kidney and plasma, intravenous 5 mg/kg, read-out: mean kidney to plasma ratio) was 14.5. The Kp ([2]; male, CD-1, mouse, kidney and plasma, oral 5 mg/kg, read-out: mean kidney to plasma ratio) was 7.25, the half-life ([2]; male, CD-1, mouse, kidney, iv, 5 mg/kg, intravenous 5 mg/kg, kidney, read-out: t1/2 (converted)) was 10.2 h and the half-life ([2]; male, CD-1, mouse, kidney, po, 5 mg/kg, oral 5 mg/kg, kidney, read-out: t1/2 (converted)) was 16.7 h. The Kp ([2]; male, CD-1, mouse, liver and plasma, intravenous 5 mg/kg, read-out: mean liver to plasma ratio) was 11.5, the Kp ([2]; male, CD-1, mouse, liver and plasma, oral 5 mg/kg, read-out: mean liver to plasma ratio) was 9.89 and the half-life ([2]; male, CD-1, mouse, liver, iv, 5 mg/kg, intravenous 5 mg/kg, liver, read-out: t1/2 (converted)) was 9.3 h. For the same compound, the half-life ([2]; male, CD-1, mouse, liver, kidney, other: oral or intravenous, 5 mg/kg, oral or intravenous route, liver and kidneys, read-out: elimination half-lives in the liver and kidneys) was 9.3 to 16.7 h, the half-life ([2]; male, CD-1, mouse, liver, po, 5 mg/kg, oral 5 mg/kg, liver, read-out: t1/2 (converted)) was 13 h and the half-life ([2]; male, CD-1, mouse, plasma, iv, 5 mg/kg, intravenous 5 mg/kg, plasma, read-out: t1/2 (converted)) was 6.9 h. The half-life ([2]; male, CD-1, mouse, plasma, po, 5 mg/kg, oral 5 mg/kg, plasma, read-out: t1/2 (converted)) was 16.4 h, the Cmax ([2]; male, CD-1, mouse, intravenous 5 mg/kg, brain, read-out: Cmax or C0) was 2260 ng/g and the Vd ([2]; male, CD-1, mouse, intravenous 5 mg/kg, brain, read-out: volume of distribution) was 8.82 ± 2.43 L/kg. The Cmax ([2]; male, CD-1, mouse, intravenous 5 mg/kg, kidney, read-out: Cmax or C0) was 4720 ng/g, the Vd ([2]; male, CD-1, mouse, intravenous 5 mg/kg, kidney, read-out: volume of distribution) was 5.63 ± 0.37 L/kg and the Cmax ([2]; male, CD-1, mouse, intravenous 5 mg/kg, liver, read-out: Cmax or C0) was 13500 ng/g. It also gave a Vd ([2]; male, CD-1, mouse, intravenous 5 mg/kg, liver, read-out: volume of distribution) of 3.38 ± 0.18 L/kg, an AUC(0-inf) [2, 3] of 4020 ng·h/mL and a clearance [2, 3] of 23.5 mL/min/kg. It also gave a C0 ([2]; male, CD-1, mouse, intravenous 5 mg/kg, plasma, read-out: Cmax or C0) of 4340 ng/mL, a Vd ([2]; male, CD-1, mouse, intravenous 5 mg/kg, plasma, read-out: Vd) of 14.3 L/kg and a Tmax ([2]; male, CD-1, mouse, oral 5 mg/kg, brain) of 1.25 h. For the same compound, the Cmax ([2]; male, CD-1, mouse, oral 5 mg/kg, brain, read-out: Cmax) was 602 ng/g, the Tmax ([2]; male, CD-1, mouse, oral 5 mg/kg, kidney) was 0.75 h and the Cmax ([2]; male, CD-1, mouse, oral 5 mg/kg, kidney, read-out: Cmax) was 795 ng/g. The Tmax ([2]; male, CD-1, mouse, oral 5 mg/kg, liver) was 0.75 h, the Cmax ([2]; male, CD-1, mouse, oral 5 mg/kg, liver, read-out: Cmax) was 1890 ng/g and the AUC(0-inf) [2, 4] was 739 ng·h/mL. For the same compound, the Tmax [2, 4] was 0.88 h, the Cmax ([2]; male, CD-1, mouse, oral 5 mg/kg, plasma, read-out: Cmax) was 198 ng/mL and the bioavailability ([2]; male, CD-1, mouse, brain, read-out: F (apparent oral bioavailability)) was 42.5 ± 5.75%. For the same compound, the bioavailability ([2]; male, CD-1, mouse, plasma, read-out: F (oral bioavailability)) was 18%, the “AUC0–∞” value ([2]; oral 5 mg/kg, brain, 5 mg/kg) was 3069 ± 64 ng·h/g and 3069 ng·h/g and the “AUC0–∞” value ([2]; oral 5 mg/kg, kidney, 5 mg/kg) was 5223 ± 44.75 ng·h/g and 5223 ng·h/g. The “AUC0–∞” value ([2]; oral 5 mg/kg, liver, 5 mg/kg) was 6423 ± 571 ng·h/g and 6423 ng·h/g.

Reference: paper PMC8778670, “Identification of an Orally Bioavailable, Brain-Penetrant Compound with Selectivity for the Cannabinoid Type 2 Receptor” (Molecules, 2022)
